Assays:
LSD1 = conditions: cited from earlier work
human recombinant LSD1 = human recombinant LSD1 (Homo sapiens, UniProt O60341); assay: Labeling of human recombinant LSD1 after pre-treatment with LSD1 inhibitors; assay type: biochemical

| effect of inhibitor pre-treatment on LSD1 labeling by probe 17 (human recombinant LSD1; compound 12 1 mM or TCP 1.5 mM, 30 min pre-incubation, probe 17 40 µM, 2 min UV) | effect of inhibitor pre-treatment on LSD1 labeling by probe 18 (human recombinant LSD1; compound 12 pre-incubation 30 min, probe 18 10 µM, 2 min) | SMILES | reported potency over LSD1 (LSD1) [µM] |
| --- | --- | --- | --- |
|  |  | N[C@@H]1C[C@H]1c1ccccc1 (relative stereo) [TCP, trans-2-phenylcyclopropyl-1-amine] | 20 to 400 |
| no reduction in protein labeling | no clear difference | C=Cc1ccc(C(=O)Nc2ccc([C@@H]3C[C@H]3N)cc2)cc1.Cl (relative stereo) [compound 12, N-(4-(trans-2-aminocyclopropyl)phenyl)-4-vinyl benzamide hydrochloride] |  |

Source: PMC5292237 (Bioorganic & medicinal chemistry, 2016)
